# Measurements from patent US7999128B2, “Hydroxybenzophenone derivatives” (BASF SE, priority 2006, dated 2011).
# Experiments:
# [1] = Solubility in Cyclomethicone; type: physicochemical; conditions: at RT
# [2] = UV absorption (λmax, E 1/1); type: physicochemical; conditions: for E 1/1: at λmax
SMILES,solubility in Cyclomethicone [1] [%],λmax [2] [nm],E 1/1 [2]
CCN(CC)c1ccc(C(=O)c2ccccc2C(=O)OCCC[Si](C)(C)C)c(O)c1 [Example A1],1.8,350,822
CCN(CC)c1ccc(C(=O)c2ccccc2C(=O)OCCOC(=O)C(C)C[Si](C)(O[Si](C)(C)C)O[Si](C)(C)C)c(O)c1 (centres unmarked) [Example A2],> 20,350,571
CCN(CC)c1ccc(C(=O)c2ccccc2C(=O)OCCOC(=O)C(C)C[Si](C)(O[Si](C)(C)C)O[Si](C)(C)C)c(O)c1 (centres unmarked) [Example A3],–,357,606
